# In article PMC11476761, “Investigation of the Pharmacodynamic Components of Gastrodia elata Blume for Treatment of Type 2 Diabetes Mellitus through HPLC, Bioactivity, Network Pharmacology and Molecular Docking” (International Journal of Molecular Sciences, 2024):
# How the values were obtained:
# Assay in all cases: PNPG hydrolysis, absorbance at […] nm
# Format in all cases: biochemical
# α-glucosidase [1] = molecular target: T1, α-glucosidase; details: PNPG substrate, 0.2 U/mL enzyme, pH 6.8, 10 min
# T1 construct: gene MAL12; pNPG assay at pH 6.8 as usual for the yeast enzyme
# α-glucosidase [2] = test system: T1, α-glucosidase; details: PNPG substrate, 0.2 U/mL enzyme, pH 6.8, 10 min; unreliable: text b23 swaps the parishin B and C values
# α-glucosidase [3] = test system: T1, α-glucosidase; details: PNPG substrate, 0.2 U/mL enzyme, pH 6.8, 10 min; unreliable: text b23 swaps the parishin B and C values; remark: listed apart in the source
structure (smiles),measurement,setting,value
OCc1ccc(O[C@@H]2O[C@H](CO)[C@@H](O)[C@H](O)[C@H]2O)cc1 [GAS],GAS,α-glucosidase [1],1.23 ± 0.09 mg/mL
OCc1ccc(O)cc1 [HBA],HBA,α-glucosidase [1],0.16 ± 0.03 mg/mL
O=C(CC(O)(CC(=O)OCc1ccc(O[C@@H]2O[C@H](CO)[C@@H](O)[C@H](O)[C@H]2O)cc1)C(=O)OCc1ccc(O[C@@H]2O[C@H](CO)[C@@H](O)[C@H](O)[C@H]2O)cc1)OCc1ccc(O[C@@H]2O[C@H](CO)[C@@H](O)[C@H](O)[C@H]2O)cc1 [Parishin A],Parishin A,α-glucosidase [1],0.24 ± 0.05 mg/mL
O=C(O)CC(O)(CC(=O)OCc1ccc(O[C@@H]2O[C@H](CO)[C@@H](O)[C@H](O)[C@H]2O)cc1)C(=O)OCc1ccc(O[C@@H]2O[C@H](CO)[C@@H](O)[C@H](O)[C@H]2O)cc1 (stereo partly drawn) [Parishin B],Parishin B,α-glucosidase [2],0.13 ± 0.03 mg/mL
O=C(CC(O)(CC(=O)OCc1ccc(O[C@@H]2O[C@H](CO)[C@@H](O)[C@H](O)[C@H]2O)cc1)C(=O)O)OCc1ccc(O[C@@H]2O[C@H](CO)[C@@H](O)[C@H](O)[C@H]2O)cc1 [Parishin C],Parishin C,α-glucosidase [3],0.19 ± 0.03 mg/mL
O=C(O)CC(O)(CC(=O)OCc1ccc(O[C@@H]2O[C@H](CO)[C@@H](O)[C@H](O)[C@H]2O)cc1)C(=O)O (stereo partly drawn) [Parishin E],Parishin E,α-glucosidase [1],0.54 ± 0.04 mg/mL
